Test results published in patent US9522197B2, “Nanoparticles comprising a cyclodextrin and a biologically active molecule and uses thereof” (INNOUP FARMA, S.L., priority 2007, dated 2016).

Test: Quantification of cyclodextrin associated with the nanoparticles (HPLC-ELSD)
Assay type: physicochemical
Conditions: PVM/MA 100 mg, cyclodextrin 25 mg, incubation 30 min; n=12
Method: The analysis was conducted in a 1100 series LC model chromatograph (Agilent, Waldbornn, Germany) and the data was analyzed in a Hewlett-Packard computer by means of the Chem-Station G2171 program (Agueros et al., J. Pharm. and Biomed. Anal., 39 (2005) 495-502).
For the sample analysis, the supernatants obtained after the purification process of the nanoparticles were diluted up to 10 ml with purified water. After adding the internal standard (PEG 6000), 1 ml aliquots of supernatant were taken as a sample. The samples were analyzed using a Zorbax Eclipse XDB-Phenyl column (Agilent 150 mm×2.1 mm) and a mixture of water/acetonitrile in a gradient (see Table 1) as a mobile phase at a flow of 0.25 ml/min.
The conditions of the detector (ELSD) were optimized until achieving the maximum sensitivity according to the gradient used in the mobile phase (Nebulizer Temperature: 115° C.; Nitrogen Flow: 3.2 ml/min). The chromatographic separation of the different cyclodextrins, of PVM/MA and of the internal standard (PEG 6000) was carried out in less than 15 minutes. The retention times were:
In the case of the quantification of aminated cyclodextrin [e.g. 6-monodeoxy-6-monoamino-β-cyclodextrin (NH-β-CD)] associated to the nanoparticles, a variant of the above described method was used to prevent the overlapping of the peaks of the cyclodextrin and the polymer. Therefore, the samples were analyzed using an NH2-Zorbax column (Agilent 4.6×150 mm, 5 μm), heated to 40° C. and a mixture of methanol/water (80/20 v/v) as a mobile phase at a flow of 1 ml/min. The conditions of the detector (ELSD) were the following: Nebulizer Temperature: 71° C. and Nitrogen Flow: 1.9 ml/min. The chromatographic separation of 6-monodeoxy-6-monoamino-β-cyclodextrin was carried out in less than 7 minutes. The retention time was 3.8±0.07 minutes.
Finally, the amount of cyclodextrin (CD) associated to the nanoparticles was calculated as the difference between the amount of CD initially added and the amount of CD quantified in the supernatants.

Associated CD | Molecule
~70 µg/mg | 2-hydroxypropyl-β-cyclodextrin [OH-β-CD]
~70 µg/mg | NC[C@H]1O[C@@H]2O[C@H]3[C@H](O)[C@@H](O)[C@@H](O[C@H]4[C@H](O)[C@@H](O)[C@@H](O[C@H]5[C@H](O)[C@@H](O)[C@@H](O[C@H]6[C@H](O)[C@@H](O)[C@@H](O[C@H]7[C@H](O)[C@@H](O)[C@@H](O[C@H]8[C@H](O)[C@@H](O)[C@@H](O[C@H]1[C@H](O)[C@H]2O)O[C@@H]8CO)O[C@@H]7CO)O[C@@H]6CO)O[C@@H]5CO)O[C@@H]4CO)O[C@@H]3CO [NH-β-CD, 6-monodeoxy-6-monoamino-β-cyclodextrin]
about 90 μg/mg | OC[C@H]1O[C@@H]2O[C@H]3[C@H](O)[C@@H](O)[C@@H](O[C@H]4[C@H](O)[C@@H](O)[C@@H](O[C@H]5[C@H](O)[C@@H](O)[C@@H](O[C@H]6[C@H](O)[C@@H](O)[C@@H](O[C@H]7[C@H](O)[C@@H](O)[C@@H](O[C@H]8[C@H](O)[C@@H](O)[C@@H](O[C@H]1[C@H](O)[C@H]2O)O[C@@H]8CO)O[C@@H]7CO)O[C@@H]6CO)O[C@@H]5CO)O[C@@H]4CO)O[C@@H]3CO [β-CD, β-cyclodextrin]
